Species on record: Rattus norvegicus
Assay: DrugMatrix - Regimen: Daily Repeat
Type: toxicity, organism-based, Sprague-Dawley
Parameters: regimen Daily Repeat, gender Male, age 6-8 weeks
Details: in vivo, po, route oral GAVAGE, vehicle .5 % CMC; for ABSOLUTE BASOPHIL / ABSOLUTE EOSINOPHIL / ABSOLUTE LYMPHOCYTE / ABSOLUTE MONOCYTE / ABSOLUTE SEGMENTED NEUTROPHIL / BASOPHIL / EOSINOPHIL / ERYTHROCYTE COUNT / HEMATOCRIT / HEMOGLOBIN / LEUKOCYTE COUNT / LYMPHOCYTE / MEAN CORPUSCULAR HEMOGLOBIN / MEAN CORPUSCULAR HEMOGLOBIN CONCENTRATION / MEAN CORPUSCULAR VOLUME / MONOCYTE / NEUTROPHIL / NUCLEATED RED BLOOD CELLS / PLATELET COUNT: tissue Blood; for ALANINE AMINOTRANSFERASE / ALBUMIN / ALKALINE PHOSPHATASE / ASPARTATE AMINOTRANSFERASE / BLOOD UREA NITROGEN / CARBON DIOXIDE / CHLORIDE / CHOLESTEROL / CREATINE PHOSPHOKINASE / CREATININE / GLUCOSE / LACTATE DEHYDROGENASE / LIPASE / PHOSPHORUS / POTASSIUM / SODIUM / TOTAL BILIRUBIN / TOTAL PROTEIN / URIC ACID: tissue Plasma
[1] = 0 mg/kg, 72 h, dose level Control, time 3 day
[2] = 0 mg/kg, 120 h, dose level Control, time 5 day
[3] = 200 mg/kg, 72 h, dose level Low, time 3 day

Structure (SMILES): CCC1=C(C)CN(C(=O)NCCc2ccc(S(=O)(=O)NC(=O)N[C@H]3CC[C@H](C)CC3)cc2)C1=O [GLIMEPIRIDE]
- ABSOLUTE BASOPHIL [1]: 0 CELLS/uL
- ABSOLUTE EOSINOPHIL [1]: 0 CELLS/uL
- ABSOLUTE LYMPHOCYTE [1]: 12191.17 CELLS/uL
- ABSOLUTE MONOCYTE [1]: 183.17 CELLS/uL
- ABSOLUTE SEGMENTED NEUTROPHIL [1]: 1192.33 CELLS/uL
- BASOPHIL [1]: 0%
- EOSINOPHIL [1]: 0%
- ERYTHROCYTE COUNT [1]: 5.51 x10E6/uL
- HEMATOCRIT [1]: 35.45%
- HEMOGLOBIN [1]: 13.82 G/DL
- LEUKOCYTE COUNT [1]: 13.57 x10E3/uL
- LYMPHOCYTE [1]: 89.83%
- MEAN CORPUSCULAR HEMOGLOBIN [1]: 25.1 pg
- MEAN CORPUSCULAR HEMOGLOBIN CONCENTRATION [1]: 38.98 G/DL
- MEAN CORPUSCULAR VOLUME [1]: 64.42 fL
- MONOCYTE [1]: 1.33%
- NEUTROPHIL [1]: 8.83%
- NUCLEATED RED BLOOD CELLS [1]: 0 /100WBC
- PLATELET COUNT [1]: 1118.17 x10E3/uL
- ALANINE AMINOTRANSFERASE [1]: 55 u/L
- ALBUMIN [1]: 4.15 G/DL
- ALKALINE PHOSPHATASE [1]: 449.5 u/L
- ASPARTATE AMINOTRANSFERASE [1]: 112.83 u/L
- BLOOD UREA NITROGEN [1]: 17.33 mg/dL
- CARBON DIOXIDE [1]: 29.5 mmol/L
- CHLORIDE [1]: 101 MEQ/L
- CHOLESTEROL [1]: 70 mg/dL
- CREATINE PHOSPHOKINASE [1]: 1325.83 u/L
- CREATININE [1]: 0.18 mg/dL
- GLUCOSE [1]: 171.5 mg/dL
- LACTATE DEHYDROGENASE [1]: 386 u/L
- LIPASE [1]: 10 u/L
- PHOSPHORUS [1]: 11.57 mg/dL
- POTASSIUM [1]: 6.21 MEQ/L
- SODIUM [1]: 141.65 MEQ/L
- TOTAL BILIRUBIN [1]: 0.15 mg/dL
- TOTAL PROTEIN [1]: 5.75 G/DL
- URIC ACID [1]: 1.28 mg/dL
- ABSOLUTE BASOPHIL [2]: 0 CELLS/uL
- ABSOLUTE EOSINOPHIL [2]: 138.17 CELLS/uL
- ABSOLUTE LYMPHOCYTE [2]: 13283.17 CELLS/uL
- ABSOLUTE MONOCYTE [2]: 303.83 CELLS/uL
- ABSOLUTE SEGMENTED NEUTROPHIL [2]: 1308.17 CELLS/uL
- BASOPHIL [2]: 0%
- EOSINOPHIL [2]: 1%
- ERYTHROCYTE COUNT [2]: 5.32 x10E6/uL
- HEMATOCRIT [2]: 33.8%
- HEMOGLOBIN [2]: 13.63 G/DL
- LEUKOCYTE COUNT [2]: 15.03 x10E3/uL
- LYMPHOCYTE [2]: 88.33%
- MEAN CORPUSCULAR HEMOGLOBIN [2]: 25.68 pg
- MEAN CORPUSCULAR HEMOGLOBIN CONCENTRATION [2]: 40.35 G/DL
- MEAN CORPUSCULAR VOLUME [2]: 63.67 fL
- MONOCYTE [2]: 1.83%
- NEUTROPHIL [2]: 8.83%
- NUCLEATED RED BLOOD CELLS [2]: 0 /100WBC
- PLATELET COUNT [2]: 1097.5 x10E3/uL
- ALANINE AMINOTRANSFERASE [2]: 54.5 u/L
- ALBUMIN [2]: 4.27 G/DL
- ALKALINE PHOSPHATASE [2]: 337 u/L
- ASPARTATE AMINOTRANSFERASE [2]: 94.67 u/L
- BLOOD UREA NITROGEN [2]: 17 mg/dL
- CARBON DIOXIDE [2]: 28.33 mmol/L
- CHLORIDE [2]: 101.5 MEQ/L
- CHOLESTEROL [2]: 71.33 mg/dL
- CREATINE PHOSPHOKINASE [2]: 628.17 u/L
- CREATININE [2]: 0.19 mg/dL
- GLUCOSE [2]: 177.83 mg/dL
- LACTATE DEHYDROGENASE [2]: 500.5 u/L
- LIPASE [2]: 9.5 u/L
- PHOSPHORUS [2]: 12.3 mg/dL
- POTASSIUM [2]: 5.63 MEQ/L
- SODIUM [2]: 143.03 MEQ/L
- TOTAL BILIRUBIN [2]: 0.2 mg/dL
- TOTAL PROTEIN [2]: 6.02 G/DL
- URIC ACID [2]: 1.5 mg/dL
- ABSOLUTE BASOPHIL [3]: 0 CELLS/uL
- ABSOLUTE EOSINOPHIL [3]: 128.33 CELLS/uL
- ABSOLUTE LYMPHOCYTE [3]: 12992 CELLS/uL
- ABSOLUTE MONOCYTE [3]: 35 CELLS/uL
- ABSOLUTE SEGMENTED NEUTROPHIL [3]: 1711.33 CELLS/uL
- BASOPHIL [3]: 0%
- EOSINOPHIL [3]: 1%
- ERYTHROCYTE COUNT [3]: 5.2 x10E6/uL
- HEMATOCRIT [3]: 33.43%
- HEMOGLOBIN [3]: 13.5 G/DL
- LEUKOCYTE COUNT [3]: 14.87 x10E3/uL
- LYMPHOCYTE [3]: 87%
- MEAN CORPUSCULAR HEMOGLOBIN [3]: 26.03 pg
- MEAN CORPUSCULAR HEMOGLOBIN CONCENTRATION [3]: 40.4 G/DL
- MEAN CORPUSCULAR VOLUME [3]: 64.33 fL
- MONOCYTE [3]: 0.33%
- NEUTROPHIL [3]: 11.67%
- NUCLEATED RED BLOOD CELLS [3]: 0 /100WBC
- PLATELET COUNT [3]: 1286.33 x10E3/uL
- ALANINE AMINOTRANSFERASE [3]: 61.67 u/L
- ALBUMIN [3]: 4.23 G/DL
- ALKALINE PHOSPHATASE [3]: 355.67 u/L
- ASPARTATE AMINOTRANSFERASE [3]: 97.67 u/L
- BLOOD UREA NITROGEN [3]: 16.33 mg/dL
- CARBON DIOXIDE [3]: 24 mmol/L
- CHLORIDE [3]: 103.67 MEQ/L
- CHOLESTEROL [3]: 81.33 mg/dL
- CREATINE PHOSPHOKINASE [3]: 1168 u/L
- CREATININE [3]: 0.16 mg/dL
- GLUCOSE [3]: 150.33 mg/dL
- LACTATE DEHYDROGENASE [3]: 169.33 u/L
- LIPASE [3]: 10 u/L
- PHOSPHORUS [3]: 12.27 mg/dL
- POTASSIUM [3]: 5.69 MEQ/L
- SODIUM [3]: 144.2 MEQ/L
- TOTAL BILIRUBIN [3]: 0.13 mg/dL
- TOTAL PROTEIN [3]: 5.83 G/DL
- URIC ACID [3]: 1.53 mg/dL
